This note sets out measurements from PubChem BioAssay AID463199 (Broad Institute, 2010).

The source made the active and inactive calls.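 The calls were made as follows: active = AC50, the dose giving half-maximal effect, exceeds a fixed cutoff for a compound that rescues yeast growth under heat; inactive = the rest, inconclusive results apart.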 Bounds are passed on as bounds.

The assay relates to S. cerevisiae Burl-1 ts mutant growth, BacTiter-Glo, 38.5C 24 h. In words: growth induction of Burl-1 ts yeast mutant, dose response, counter-screen for SUMOylation pathway inhibitor project, whole organism, S. cerevisiae, luminescence (AID 463199).
As a reminder, the AC50 is the concentration giving half of the maximal activity seen. For `CN1C(C(=O)Nc2ccccn2)=C(O)c2sccc2S1(=O)=O`, the AC50 is > 42 µM (inactive). The figure for `CCCCCC(=O)Nc1nnn(CCC)n1` is > 42 µM (inactive).

On to `CC(=O)Nc1ccc(CN2CCCC(CO)(Cc3cccc(Cl)c3)C2)cc1` (stereo not drawn), for which the AC50 is > 42 µM (inactive).

For `COC(=O)C1(Cc2cc(-c3ccccc3)no2)CCN(C(=O)OC(C)(C)C)CC1`, the AC50 was > 42 µM (inactive). As to `CC(C)c1ccc(NC(=O)COc2nnc(-c3cccs3)c(-c3cccs3)n2)cc1`, the AC50 was > 42 µM (inactive). For `Cn1c(CCN2CCOCC2)nc2cc(NC(=O)COc3ccccc3)ccc21`, the AC50 was > 42 µM (inactive). For `O=C(NC1CCCCCC1)C1CCN(S(=O)(=O)c2cccc3cccnc23)CC1`, the AC50 was > 42 µM (inactive). As for `Cc1nn(CC(=O)Nc2ccccn2)c(C)c1[N+](=O)[O-]`, the AC50 was > 42 µM (inactive). The value for `O=C(Nc1ccc2ccccc2c1)N1CCCN(CCOc2ccccc2)CC1` was > 42 µM (inactive); that for `O=C(O)CNS(=O)(=O)Cc1ccccc1` was > 42 µM (inactive). With `O=C(CCn1cnnn1)Nc1ccc(Cl)cc1Cl`, the AC50 is > 42 µM (inactive).

In the case of `O=C1c2ccccc2C(=O)N1CCSc1ccccc1`, the AC50 is > 42 µM (inactive). Take `COc1cc2c(=O)n(-c3ccc(C)cc3)c(=O)n(CC(=O)c3ccc4c(c3)OCO4)c2cc1OC`: the AC50 is > 42 µM (inactive).

Regarding `CNS(=O)(=O)c1cccc(C(=O)NCC2(N3CCCCC3)CCCCC2)c1`, the AC50 is > 42 µM (inactive).

As for `O=C(COc1ccccc1)Nc1ccc(OC(F)(F)C(F)F)c(NC(=O)COc2ccccc2)c1`, the AC50 was > 42 µM (inactive).

Regarding `O=C(CCCCCn1c(=O)[nH]c2ccsc2c1=O)NCc1ccc(F)cc1`, the AC50 is > 42 µM (inactive). Consider `COc1cc(-c2nnc(SCC#CCO)o2)cc(OC)c1OC`, for which the AC50 was > 42 µM (inactive). Regarding `Cc1ccc(-n2c(SCC(=O)N(C)C3CCS(=O)(=O)C3)nc3ccccc3c2=O)cc1` (stereo not drawn), the AC50 was > 42 µM (inactive). With `O=C(N/N=C/c1ccc(Cl)s1)c1ccccc1[N+](=O)[O-]`, the AC50 was > 42 µM (inactive).

As for `Cc1nc2c3ccccc3nc(NNC(=O)CCC(=O)N3CCCC(C)C3)n2n1` (stereo not drawn), the AC50 was > 42 µM (inactive). On to `COc1ccc2[nH]c(=O)c(CN(C(=O)c3ccccn3)c3ccccc3)cc2c1`, for which the AC50 was > 42 µM (inactive). As for `CC(=O)Oc1cccc(N2C(=O)c3ccc(C(=O)Nc4c[nH]c(=O)[nH]c4=O)cc3C2=O)c1`, the AC50 was > 42 µM (inactive). The figure for `COC(=O)c1ccc(CN2CCN(C3CCCCC3)C(CCO)C2)cc1` (stereo not drawn) is > 42 µM (inactive).

Turning to `O=C(NCC(c1cccs1)N1CCOCC1)c1ccccc1NS(=O)(=O)c1cc([N+](=O)[O-])ccc1Cl` (stereo not drawn), the AC50 was > 42 µM (inactive). Take `CCCCC(=O)NC(=S)Nc1cccc(C(=O)O)c1`: the AC50 is > 42 µM (inactive). As for `O=C(Nc1ccc2oc(-c3ccccc3F)nc2c1)c1ncn[nH]1`, the AC50 was > 42 µM (inactive).

`CCOc1c(Cl)cc(CNCC(O)c2ccccc2)cc1OC` (stereo not drawn): the AC50 is > 42 µM (inactive).

Take `Cc1cc(/C=N/NC(=O)c2ccsc2)c(C)n1-c1cnccn1`: the AC50 was > 42 µM (inactive). On to `COCC(C)n1c(C)cc(C(=O)CSc2ccc(NC(C)=O)cc2)c1C` (stereo not drawn), for which the AC50 was > 42 µM (inactive). For the compound `O=[N+]([O-])c1cc([N+](=O)[O-])c2cc3ccccc3nc2c1`, the AC50 is > 42 µM (inactive). As for `Cc1ccc(C(=O)O)cc1N=Cc1cc(Br)cc(Br)c1O`, the AC50 was > 42 µM (inactive). Turning to `COCCNC(=O)C(c1ccc(C)cc1)N(C(=O)CCC(=O)Nc1ccccn1)c1cccc(C)c1` (stereo not drawn), the AC50 is > 42 µM (inactive). For `COCCNCc1ccccc1`, the AC50 was > 42 µM (inactive). On to `CC1=CC2=NC(=O)/C(=C\c3cc(C)n(-c4ccccc4)c3C)C(=N)N2O1`, for which the AC50 is > 42 µM (inactive). As to `O=C(c1ccco1)N1CCN(CC(=O)N2c3ccccc3CCc3ccccc32)CC1`, the AC50 is > 42 µM (inactive). The value for `CCOP(=O)(Cc1cc(C(=O)CC)c(C)o1)OCC` was > 42 µM (inactive); that for `COc1ccc(N2CC(C(=O)N3CCc4ccccc43)CC2=O)cc1` (stereo not drawn) was > 42 µM (inactive); that for `Cn1c(SCC(=O)N/N=C/c2ccc([N+](=O)[O-])s2)nnc1-c1ccc(Cl)cc1` was > 42 µM (inactive). Turning to `CCOc1ccc(NC(=O)CN(C)C(=O)c2ccc(OCc3ccccc3)c(OC)c2)cc1OCC`, the AC50 is > 42 µM (inactive). `O=C(NCC1CCCO1)c1nn2c(C(F)(F)F)cc(-c3cc(Br)cs3)nc2c1Br` (stereo not drawn): the AC50 is > 42 µM (inactive).

As to `Cc1cc(C)cc(C(=O)Oc2cc(C)[nH]c(=O)c2[N+](=O)[O-])c1`, the AC50 is > 42 µM (inactive).

Regarding `N#Cc1cc2c(nc1SC1CCCCC1O)CCCC2` (stereo not drawn), the AC50 was > 42 µM (inactive). With `Cc1cnc(=O)[nH]c1SCC(=O)c1ccc(F)cc1`, the AC50 is > 42 µM (inactive). The figure for `CCCCn1c2c(c(=O)n(C)c1=O)C(c1ccc(OC)cc1)N1CCCCCC1=N2` (stereo not drawn) is > 42 µM (inactive). The value for `C=C(C)Cc1c(C)c(C#N)c2[nH]c3ccccc3n2c1=O` was > 42 µM (inactive); that for `C=CCNC(=O)NC(=O)COC(=O)/C(C#N)=C/c1cc(C)n(CC(C)C)c1C` was > 42 µM (inactive). The figure for `C=C(C)C(=O)OC1(C(F)(F)F)Oc2cc(C)ccc2NC1=O` (stereo not drawn) is > 42 µM (inactive); for `O=C(NCC1CCN(Cc2ccccc2Cl)CC1)Nc1ccccc1F` it is > 42 µM (inactive). In the case of `Cc1ccc(-n2nnnc2SCC#N)cc1`, the AC50 was > 42 µM (inactive).

Consider `COC(=O)c1c(C)cc(O)c(C=O)c1O`, for which the AC50 is > 42 µM (inactive). The figure for `O=C(COc1ccccc1)NCCS(=O)(=O)N1CCN(c2ccccc2)CC1` is > 42 µM (inactive). As for `CCS(=O)(=O)c1nc(S(=O)(=O)c2ccc(Cl)cc2)c(N2CCc3ccccc3C2)s1`, the AC50 is > 42 µM (inactive). For the compound `O=c1c2ccccc2nc(SCc2nnc(-c3ccccc3)o2)n1-c1ccc(F)cc1F`, the AC50 is > 42 µM (inactive). Consider `CC1(C)NC(=O)N(CC(=O)O)C1=O`, for which the AC50 is > 42 µM (inactive).

With `CCN(CC)c1ncnc2ccc(Br)cc12`, the AC50 was > 42 µM (inactive). On to `COc1ccc(S(=O)(=O)N2CCCOC2CNC(=O)C(=O)NCCCN2CCOCC2)cc1C` (stereo not drawn), for which the AC50 was > 42 µM (inactive).

Regarding `COc1ccc([N+](=O)[O-])c2c(=O)ccoc12`, the AC50 was > 42 µM (inactive).

For the compound `COc1ccccc1OCCSc1nc2ccccc2n1CCC(=O)O`, the AC50 was > 42 µM (inactive).

Consider `Cc1cc(C#Cc2c(-c3ccccc3)n(C)c3ccccc23)ccc1F`, for which the AC50 is > 42 µM (inactive).

Take `Cc1ccc(S(=O)(=O)N(C)CC(=O)O/N=C(\N)c2ccccn2)cc1`: the AC50 is 40.6 µM. Consider `CN(C/C=C/c1ccccc1[N+](=O)[O-])Cc1ccccc1`, for which the AC50 was > 42 µM (inactive). In the case of `COc1ccc(NC(=O)c2cc(S(=O)(=O)Nc3ccc(OC)cc3)cs2)cc1`, the AC50 was > 42 µM (inactive). Regarding `N#C/C(=C\c1cn(-c2ccccc2)nc1-c1cccnc1)c1nnc2n1CCCCC2`, the AC50 is > 42 µM (inactive). Consider `O=S(=O)(NCc1ccc(Cl)cc1)c1cnc[nH]1`, for which the AC50 was > 42 µM (inactive).

Turning to `CCCNC(=O)Cn1sc2nc(C)cc(C)c2c1=O`, the AC50 was > 42 µM (inactive).

With `Cc1ccc(-c2ccc(/C=N/n3cnnc3)o2)cc1`, the AC50 is > 42 µM (inactive). In the case of `CC(=O)Nc1ccccc1C(=O)C(=O)Nc1ccc(C(=O)NCC2CCCO2)cc1` (stereo not drawn), the AC50 is > 42 µM (inactive).

Turning to `CSc1nsc(SCC(=O)Nc2cccc(C(=O)O)c2)n1`, the AC50 was > 42 µM (inactive).

As to `COc1cccc(NC(=S)NC(=O)c2cncc(Br)c2)c1`, the AC50 was > 42 µM (inactive). Turning to `C=C1C2C[C@@]3([C@@H]1O)[C@@H](C[C@@H]2O)[C@@]12C4[C@@H]3C[C@@H]1[C@@](C)(CC[C@@H]2O)CN4CC`, the AC50 was > 42 µM (inactive). As for `COc1ccc(-n2c(SCC(=O)NCC3CCCO3)nc3c(c2=O)SCC3)cc1OC` (stereo not drawn), the AC50 was > 42 µM (inactive). The figure for `COc1ccc(Nc2cc(NCCCO)c([N+](=O)[O-])c3nonc23)cc1` is > 42 µM (inactive); for `Cc1n[nH]c(=O)nc1NCc1ccc(Cl)cc1` it is > 42 µM (inactive); for `C/C(=N\NC(=O)Cc1csc(N2CCOCC2)n1)c1ccccc1` it is > 42 µM (inactive). Consider `CCC(C)NCCOc1ccccc1C` (stereo not drawn), for which the AC50 was > 42 µM (inactive). The figure for `CCOc1ccc(S(=O)(=O)N2CCC(C(=O)N3CCN(c4ccccc4)CC3)CC2)cc1` is > 42 µM (inactive). The value for `CC1=C(C(=O)Nc2ccccc2)C(c2ccccc2[N+](=O)[O-])NC(=O)N1` (stereo not drawn) was > 42 µM (inactive). The figure for `O=c1c2c(ncn1Cc1ccccc1)nc1n2CCC1` is > 42 µM (inactive); for `CN(C)CC/C=C1/c2cc(F)ccc2Sc2ccc(Cl)cc21` it is > 42 µM (inactive); for `CC(NC(=O)CCc1nnc(-c2ccc(-c3ccccc3)cc2)o1)c1nc2ccccc2[nH]1` (stereo not drawn) it is > 42 µM (inactive). Consider `COc1ccccc1-c1nc2ccccc2nc1-c1ccccc1OC`, for which the AC50 is > 42 µM (inactive). On to `CCN(C(=O)Nc1ccccc1OC)c1c(N)n(Cc2ccccc2)c(=O)[nH]c1=O`, for which the AC50 was > 42 µM (inactive). On to `O=C(NCc1ccco1)C1CC(=O)N(c2ccc(Cl)cc2)C1` (stereo not drawn), for which the AC50 was > 42 µM (inactive). `O=C1CCC(=O)N1CCOP1(=O)COc2ccccc2OC1`: the AC50 is > 42 µM (inactive). Consider `O=C(COc1ccc(Cl)cc1)NCCCNC(=O)c1ccccn1`, for which the AC50 was > 42 µM (inactive).

As to `NS(=O)(=O)c1cccc(NC(=O)c2cccnc2Oc2ccccc2)c1`, the AC50 was > 42 µM (inactive). The value for `CCOP(=O)(OCC)C(NC(=O)c1cccc(C)c1)C(Cl)(Cl)Cl` (stereo not drawn) was > 42 µM (inactive); that for `Cc1nc(SCC(=O)O)n[nH]1` was > 42 µM (inactive).
